Assays:
[1] = test system: Phosphorylation of ERK1/2 in AsPC-1 cells; test: Phospho-ERK1/2 MSD Assay; format: cell-based; settings: Homo sapiens, ASPC1, 2 h, read-out: 2 h p-ERK (AsPC-1 cells), IC50 (μM), AsPC-1 cells, 2 h compound treatment
Method: AsPC-1 (ATCC® CRL-1682TM) cells were cultured in RPMI 1640 Medium (ThermoFisher Scientific 11875093) containing 10% fetal bovine serum (ThermoFisher Scientific 16000044) and 1× penicillin-streptomycin-glutamine (ThermoFisher Scientific 10378016). Sixteen hours prior to compound treatment, AsPC-1 cells were seeded in 96-well cell culture plates at a density of 25,000 cells/well and incubated at 37° C., 5% CO2. A compound dose-response titration was diluted in growth media, added to appropriate wells of a cell culture plate, and then incubated at 37° C., 5% CO2 for 2 hours. Following compound treatment, cells were washed with ice-cold Dulbecco's phosphate-buffered saline, no Ca^2+ or Mg^2+ (ThermoFisher Scientific 14190144), and then lysed in RIPA buffer (50 mM Tris-HCl pH 7.5, 1% Igepal, 0.5% sodium deoxycholate, 150 mM NaCl, and 0.5% sodium dodecyl sulfate) containing protease inhibitors (Roche 4693132001) and phosphatase inhibitors (Roche 4906837001). Phosphorylation of ERK1/2 in compound-treated lysates was assayed using Phospho-ERK1/2 Whole Cell Lysate kits (Meso Scale Discovery K151DWD) according to the manufacturer's protocol. Assay plates were read on a Meso Scale Discovery Sector Imager 6000, and data were analyzed using a 4-parameter logistic model to calculate IC50 values.

[2] = target: His-tagged KRAS G12D protein (Homo sapiens (Human), UniProt P01116, G12D); test: KRAS G12D TR-FRET Assay; format: binding; settings: biotinylated KRPep-2d, 10 μM GDP
Sequence of His-tagged KRAS G12D protein (P01116-2 other isoform, or with tags, fused parts or gaps G12D): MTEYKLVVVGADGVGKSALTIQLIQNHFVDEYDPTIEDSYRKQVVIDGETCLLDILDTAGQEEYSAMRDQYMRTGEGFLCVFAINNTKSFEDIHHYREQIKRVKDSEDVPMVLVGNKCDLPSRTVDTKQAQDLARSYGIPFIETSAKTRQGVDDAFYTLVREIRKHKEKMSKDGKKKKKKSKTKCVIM
Method: Compounds of interest were prepared in a dose-response titration in DMSO, and 80 nL were added via Labcyte Echo to each well of a 384-well plate (Perkin Elmer 6008280). The His-tagged KRAS G12D protein (Amgen) was diluted to 20 nM in Assay Buffer (20 mM HEPES, pH 7.4, 10 mM MgCl2, 50 mM NaCl, 0.1% BSA, 0.01% Tween-20, 10 μM GDP) and 2 μL was added to the appropriate wells of the 384-well plate. The plate was incubated for 30 minutes at rt. Biotinylated KRPep-2d substrate (Amgen) was diluted to […] in Assay Buffer and 2 AL was added to all wells and incubated for 1 hour at room temperature. Detection Reagent (0.4 nM LANCE Eu-W1024 Anti-6×His (Perkin Elmer AD0401), 5 nM streptavidin-d2 (Cisbio 610SADLA)) was prepared in Assay Buffer, then 4 AL was added to the plate and incubated for 1 h at rt. Plates were read using PerkinElmer En Vision (ex: 320 nm, em1: 665 nm, em2: 615 nm) and em1/em2 data was used to generate curve fits using a 4-parameter logistic model to calculate IC50 values.

[3] = target: GDP-bound KRAS protein (aa 1-169), G12D and C118A; SOS-mediated nucleotide exchange (Homo sapiens (Human), UniProt P01116, C118A/G12D); test: KRAS G12D Coupled Nucleotide Exchange Assay; format: biochemical; settings: 2 h compound pre-incubation, GTP, cRAF AlphaScreen
Sequence of GDP-bound KRAS protein (aa 1-169), G12D and C118A; SOS-mediated nucleotide exchange (P01116 other isoform, or with tags, fused parts or gaps G12D/C118A): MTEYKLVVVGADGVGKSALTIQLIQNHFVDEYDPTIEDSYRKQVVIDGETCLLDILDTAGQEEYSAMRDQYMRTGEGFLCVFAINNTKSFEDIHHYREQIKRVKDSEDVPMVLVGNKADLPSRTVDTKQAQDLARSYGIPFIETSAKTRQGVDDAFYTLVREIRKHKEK
Method: Purified GDP-bound KRAS protein (aa 1-169), containing both G12D and C118A amino acid substitutions and an N-terminal His-tag, was pre-incubated in assay buffer (25 mM HEPES pH 7.4, 10 mM MgCl2, and 0.01% Triton X-100) with a compound dose-response titration for 2 h. Following compound pre-incubation, purified SOS protein (aa 564-1049) and GTP (Roche 10106399001) were added to the assay wells and incubated for an additional 30 min. […] The assay plates were then read on a PerkinElmer En Vision Multilabel Reader, using AlphaScreen® technology, and data were analyzed using a 4-parameter logistic model to calculate IC50 values.

IC50 [1] [µM] | IC50 [2] [nM] | IC50 [3] [nM] | SMILES
0.264 |  |  | N#Cc1c(N)sc2c(F)ccc(-c3c(Cl)cc4c(N5CC6CC(O)C(C6)C5)nc(OC[C@@]56CCCN5C[C@H](F)C6)nc4c3F)c12 (mixture of isomers) [Example 7, 2-Amino-4-(6-chloro-8-fluoro-2-(((2R,7aS)-2-fluorotetrahydro-1H-pyrrolizin-7a(5H)-yl)methoxy)-4-(rac-(1R,5R,6R)-6-hydroxy-3-azabicyclo[3.2.1]octan-3-yl)quinazolin-7-yl)-7-fluorobenzo[6] thiophene-3-carbonitrile]
0.013 | 2 | 2 | N#Cc1c(N)sc2c(F)ccc(-c3c(Cl)cc4c(N5CCCOCCC5)nc(OC[C@@]56CCCN5C[C@H](F)C6)nc4c3F)c12 (single isomer, unassigned) [Example 18]
 | 164 | 94 | N#Cc1c(N)sc2c(F)ccc(-c3c(Cl)cc4c(N5CCCOCCC5)nc(OC[C@@]56CCCN5C[C@H](F)C6)nc4c3F)c12 (single isomer, unassigned) [Example 19]
 | 44 | 42 | CC1(O)COCCN(c2nc(OC[C@@]34CCCN3C[C@H](F)C4)nc3c(F)c(-c4ccc(F)c5sc(N)c(C#N)c45)c(Cl)cc23)C1 (single isomer, unassigned) [Example 23]
 | 61 | 34 | CC(C)(O)COc1nc(N2CCOC[C@@](C)(O)C2)c2cc(Cl)c(-c3ccc(F)c4sc(N)c(C#N)c34)c(F)c2n1 (single isomer, unassigned) [Example 67]
0.052 |  |  | N#Cc1c(N)sc2c(F)ccc(-c3c(Cl)cc4c(N5CCCCCC5)nc(OC[C@@]56CCCN5C[C@H](F)C6)nc4c3F)c12 [Example 1, 2-Amino-4-(4-(azepan-1-yl)-6-chloro-8-fluoro-2-(((2R,7aS)-2-fluorotetrahydro-1H-pyrrolizin-7a(5H)-yl)methoxy)quinazolin-7-yl)-7-fluorobenzo[b]thiophene-3-carbonitrile]
 | 34 | 46 | N#Cc1c(N)sc2c(F)ccc(-c3c(Cl)cc4c(N5CCCC6(CCOC6)C5)nc(OC[C@@]56CCCN5C[C@H](F)C6)nc4c3F)c12 (stereo partly drawn) [Example 2, 2-Amino-4-(6-chloro-8-fluoro-2-(((2R,7aS)-2-fluorotetrahydro-1H-pyrolizin-7a(5H)-yl)methoxy)-4-(2-oxa-7-azaspiro[4.5]decan-7-yl)quinazolin-7-yl)-7-fluorobenzo[b] thiophene-3-carbonitrile]
0.105 |  |  | N#Cc1c(N)sc2c(F)ccc(-c3c(Cl)cc4c(N5CCCC(C#N)CC5)nc(OC[C@@]56CCCN5C[C@H](F)C6)nc4c3F)c12 (stereo partly drawn) [Example 3, 1-(7-(2-Amino-3-cyano-7-fluorobenzo[b]thiophen-4-yl)-6-chloro-8-fluoro-2-(((2R,7a.S)-2-fluorotetrahydro-1H-pyrrolizin-7a(5H)-yl)methoxy)quina-zolin-4-yl)azepane-4-carbonitrile]
0.041 |  |  | N#Cc1c(N)sc2c(F)ccc(-c3c(Cl)cc4c(N5CCCC[C@@H](O)C5)nc(OC[C@@]56CCCN5C[C@H](F)C6)nc4c3F)c12 [Example 4, 2-Amino-4-(6-chloro-8-fluoro-2-(((2R,7aS)-2-fluorotetrahydro-1H-pyrrolizin-7a(5H)-yl)methoxy)-4-((R)-3-hydroxyazepan-1-yl)quinazolin-7-yl)-7-fluorobenzo[b] thiophene-3-carbonitrile]
0.143 |  |  | N#Cc1c(N)sc2c(F)ccc(-c3c(Cl)cc4c(N5CCOCC(=O)C5)nc(OC[C@@]56CCCN5C[C@H](F)C6)nc4c3F)c12 [Example 6, 2-Amino-4-(6-chloro-8-fluoro-2-(((2R,7aS)-2-fluorotetrahydro-1H-pyrrolizin-7a(5H)-yl)methoxy)-4-(6-oxo-1,4-oxazepan-4-yl)quinazolin-7-yl)-7-fluorobenzo[b] thiophene-3-carbonitrile]
0.015 |  |  | N#Cc1c(N)sc2c(F)ccc(-c3c(Cl)cc4c(N5CCCCC(=O)C5)nc(OC[C@@]56CCCN5C[C@H](F)C6)nc4c3F)c12 [Example 8, 2-Amino-4-(6-chloro-8-fluoro-2-(((2R,7aS)-2-fluorotetrahydro-1H-pyrrolizin-7a(5H)-yl)methoxy)-4-(3-oxoazepan-1-yl)quinazolin-7-yl)-7-fluorobenzo[b] thiophene-3-carbonitrile]
 | 60 | 41 | N#Cc1c(N)sc2c(F)ccc(-c3c(Cl)cc4c(N5CCC6(CCCS6(=O)=O)C5)nc(OC[C@@]56CCCN5C[C@H](F)C6)nc4c3F)c12 (stereo partly drawn) [Example 9, 2-Amino-4-(6-chloro-4-(1,1-dioxido-1-thia-7-azaspiro[4.4]nonan-7-yl)-8-fluoro-2-(((2R,7aS)-2-fluorotetrahydro-1H-pyrrolizin-7a(5H)-yl)methoxy)quinazolin-7-yl)-7-fluorobenzo[b] thiophene-3-carbonitrile]
 | 44 | 36 | N#Cc1c(N)sc2c(F)ccc(-c3c(Cl)cc4c(N5CCCC6(CCS6(=O)=O)C5)nc(OC[C@@]56CCCN5C[C@H](F)C6)nc4c3F)c12 (stereo partly drawn) [Example 10, 2-Amino-4-(6-chloro-4-(1,1-dioxido-1-thia-6-azaspiro[3.5]nonan-6-yl)-8-fluoro-2-(((2R,7aS)-2-fluorotetrahydro-1H-pyrrolizin-7a(5H)-yl)methoxy)quinazolin-7-yl)-7-fluorobenzo[b] thiophone-3-carbonitrile]
0.768 |  |  | N#Cc1c(N)sc2c(F)ccc(-c3c(Cl)cc4c(N5CCCC6(CNC(=O)O6)C5)nc(OC[C@@]56CCCN5C[C@H](F)C6)nc4c3F)c12 (stereo partly drawn) [Example 17, 2-Amino-4-(6-chloro-8-fluoro-2-(((2R,7aS)-2-fluorotetrahydro-1H-pyrrolizin-7a(5H)-yl)methoxy)-4-(2-oxo-1-oxa-3,7-diazaspiro[4.5]decan-7-yl)quinazolin-7-yl)-7-fluorobenzo[b] thiophene-3-carbonitrile]
0.081 |  |  | N#Cc1c(N)sc2c(F)ccc(-c3c(Cl)cc4c(N5CCC=CC(O)C5)nc(OC[C@@]56CCCN5C[C@H](F)C6)nc4c3F)c12 (stereo partly drawn) [Example 29, 2-Amino-4-(6-chloro-8-fluoro-2-(((2R,7aS)-2-fluorotetrahydro-1H-pyrrolizin-7a(5H)-yl)methoxy)-4-(3-hydroxy-2,3,6,7-tetrahydro-1H-azepin-1-yl)quinazolin-7-yl)-7-fluorobenzo[b] thiophene-3-carbonitrile]
 | 17 | 30 | C[C@@]1(O)CCCN(c2nc(OC[C@@]34CCCN3C[C@H](F)C4)nc3c(F)c(-c4ccc(F)c5sc(N)c(C#N)c45)ncc23)C1 [Example 56, 2-Amino-7-fluoro-4-(8-fluoro-2-(((2R,7aS)-2-fluorotetrahydro-1H-pyrrolizin-7a(5H)-yl)methoxy)-4-((R)-3-hydroxy-3-methylpiperidin-1-yl)pyrido[4,3-d]pyrimidin-7-yl)benzo[b] thiophene-3-carbonitrile]
 | 144 | 91 | N#Cc1c(N)sc2c(F)ccc(-c3c(Cl)cc4c(N5CCCC[C@@H](C#N)C5)nc(OC[C@@]56CCCN5C[C@H](F)C6)nc4c3F)c12 [Example 68, (3R)-1-(7-(2-amino-3-cyano-7-fluorobenzo[b]thiophen-4-yl)-6-chloro-8-fluoro-2-(((2R,7aS)-2-fluorotetrahydro-1H-pyrrolizin-7a(5H)-yl)methoxy)quinazolin-4-yl)azepane-3-carbonitrile]
 | 139 | 71 | N#Cc1c(N)sc2c(F)ccc(-c3c(Cl)cc4c(N5CCCC[C@H](C#N)C5)nc(OC[C@@]56CCCN5C[C@H](F)C6)nc4c3F)c12 [Example 69, (3S)-1-(7-(2-amino-3-cyano-7-fluorobenzo[b]thiophen-4-yl)-6-chloro-8-fluoro-2-(((2R,7aS)-2-fluorotetrahydro-1H-pyrrolizin-7a(5H)-yl)methoxy)quinazolin-4-yl)azepane-3-carbonitrile]

— patent US20250163064A1, “QUINAZOLINE COMPOUNDS AND USES THEREOF AS INHIBITORS OF MUTANT KRAS PROTEINS” (AMGEN INC., priority 2022, published 2025)
